Measurements published in US12492373B2, “Production method for nerve tissue” (Racthera Co., Ltd., priority 2014, dated 2025).

Test system: human iPS cells (1231A3 strain)
Assay: Form of cell aggregate in suspension culturing, bright field observation (good / medium / bad form)
Assay type: cell-based
Conditions: for cell aggregates with a bad form (not spherical, collapsed) / cell aggregates with a good form (spherical, smooth surface and dense inside) / cell aggregates with a medium form (spherical, forming cyst): day 6
Procedure: (§1) The above human iPS cells were treated with the cell dispersion solution by using TrypLE Select (Life Technologies), further dispersed into single cells by pipetting operation, and the above human iPS cells dispersed into single cells were suspended in 100 μl of a serum-free medium at 1.2×10^4 cells per well of a non-cell-adhesive 96-well culture plate (PrimeSurface 96V-bottom plate, manufactured by SUMITOMO BAKELITE), and subjected to suspension culturing at 37° C., 5% CO2. As the serum-free medium (gfCDM+KSR) therefor, a serum-free medium which is a 1:1 mixture of F-12 medium and IMDM medium supplemented with 10% KSR, 450 μM 1-monothioglycerol, and 1× Chemically defined lipid concentrate was used. At the time of the start of suspension culturing (day 0 after the start of suspension culturing, start of step 2), Y27632 (final concentration 20 μM) was added to the above serum-free medium. By day 2 after the start of suspension culturing, a cell aggregate was formed under both preconditioning conditions and conditions without preconditioning (step 2 completed, step 3 start). On day 3 after the start of suspension culturing, a serum-free medium (50 μl) free of Y27632 was added.
The thus-prepared cells on day 6 after the start of suspension culturing were subjected to bright field observation under an inverted microscope (KEYENCE) (FIG. 3).
Furthermore, bright field observation of the form of the cell aggregate on day 6 after the start of suspension culturing was performed under an inverted microscope, and the form was categorized into good form (FIG. 3C black bar, spherical, smooth surface and dense inside), medium form (FIG. 3 gray bar, spherical, forming cyst), and bad form (FIG. 3C white bar, not spherical, collapsed) and quantified.
as §1, with “μM 1-monothioglycerol, 1× Chemically” for “μM 1-monothioglycerol, and 1× Chemically”, “20 μM) and TGFβR inhibitor (SB431542, 5 μM) were added to” for “20 μM) was added to”, “of Y27632 and supplemented with a TGFβR inhibitor (SB431542, 5 μM) was added.” for “of Y27632 was added.”
The form of the thus-prepared cell aggregates on day 6 after the start of suspension culturing was observed according to the method described in Example 3.
The above human iPS cells were treated with the cell dispersion solution by using TrypLE Select (Life Technologies), further dispersed into single cells by pipetting operation, and the above human iPS cells dispersed into single cells were suspended in 100 μl of a serum-free medium at 1.2×10^4 cells per well of a non-cell-adhesive 96-well culture plate (PrimeSurface 96V-bottom plate, manufactured by SUMITOMO BAKELITE), and subjected to suspension culturing at 37° C., 5% CO2. As the serum-free medium (gfCDM+KSR) therefor, a serum-free medium which is a 1:1 mixture of F-12 medium and IMDM medium supplemented with 10% KSR, 450 μM 1-monothioglycerol and 1× Chemically defined lipid concentrate was used. […]

[1] = SB431542 5 μM in step 1 and in step 2 and step 3
[2] = no preconditioning in step 1, SB431542 5 μM added in step 2 and step 3

NC(=O)c1ccc(-c2nc(-c3ccc4c(c3)OCO4)c(-c3ccccn3)[nH]2)cc1 [SB431542, 4-(5-benzol[1,3]dioxol-5-yl-4-pyridin-2-yl-1H-imidazol-2-yl)-benzamide]
shape of cell aggregate compared with no preconditioning (SB431542 5 μM 1 day in step 1, day 6 of suspension culturing): better shape
cell aggregates with a bad form (not spherical, collapsed) [1]: about 0%
cell aggregates with a good form (spherical, smooth surface and dense inside) [1]: about 100%
cell aggregates with a medium form (spherical, forming cyst) [1]: about 0%
cell aggregates with a bad form (not spherical, collapsed) (SB431542 5 μM in step 1 only): about 0%
cell aggregates with a good form (spherical, smooth surface and dense inside) (SB431542 5 μM in step 1 only): about 100%
cell aggregates with a medium form (spherical, forming cyst) (SB431542 5 μM in step 1 only): about 0%
cell aggregates with a bad form (not spherical, collapsed) [2]: about 30%
cell aggregates with a good form (spherical, smooth surface and dense inside) [2]: about 10%
cell aggregates with a medium form (spherical, forming cyst) [2]: about 60%
